{
  "source": "patent US6660804B1",
  "about": "“Cyclodextrin polymers and/or cyclodextrin derivatives with complexing properties and ion-exchange properties and method for the production thereof” (Universite des Sciences et Technologies de Lille, priority 1999, dated 2003)",
  "key": {"[1]": {"experiment": "Diffusion of 2-naphthol through 12000-14000 d dialysis membrane (complexing)", "type": "physicochemical", "conditions": "50 ml 10^-3 M 2-naphthol plus 0.2837 g β cyclodextrin or 0.3317 g copolymer inside membrane, 250 ml distilled water outside, after 76 hours of dialysis; 2-naphthol alone 0.2865", "protocol": "Three solutions of 50 ml of 10−3 M 2-naphthol were introduced into 12000-14000 d dialysis membranes. The first fraction contained 2-naphthol alone; the second contained the dye and 0.2837 g of β cyclodextrin (i.e., 5×10^−3 mol/l); the third contained the dye and 0.3317 g of the soluble cyclodextrin copolymer obtained using the method described in Example 1. The three membranes with the three different dye solutions were each immersed in 250 ml of distilled water. Diffusion of the dye from the interior of the membrane into the distilled water surrounding the membrane was monitored by determining the absorbance of the external solution at 327 nm. The absorbance values obtained for the external solutions for the three fractions after 76 hours of dialysis were 0.2865 for the first fraction, 0.3030 for the second fraction and only 0.2574 for the third fraction."}, "[2]": {"experiment": "Diffusion of CI Basic Red 22 through 12000-14000 d dialysis membrane (complexing)", "type": "physicochemical", "conditions": "50 ml 10^-4 M dye plus 0.2837 g additive inside membrane, 250 ml distilled water outside, after 5 hours of dialysis; dye alone 0.2722", "protocol": "Three solutions of 50 ml of 10^−4 M CI Basic Red 22 basic dye were introduced into 12000-14000 d dialysis membranes. The first fraction contained the dye alone; the second contained the dye and 0.2837 g of β cyclodextrin (i.e., 5×10^−3 mol/l); the third contained the dye and 0.2837 g of soluble cyclodextrin copolymer obtained using the method described in Example 1. The three membranes with the three different dye solutions were each immersed in 250 ml of distilled water. Diffusion of the dye from the interior of the membrane into the distilled water surrounding the membrane was monitored by determining the absorbance of the external solution at 540 nanometers (nm). The absorbance values obtained for the external solutions for the three fractions after 5 hours of dialysis were 0.2722 for the first fraction, 0.1873 for the second fraction and only 0.0237 for the third fraction."}},
  "data": [
    {"compound": "OC[C@H]1O[C@@H]2O[C@H]3[C@H](O)[C@@H](O)[C@@H](O[C@H]4[C@H](O)[C@@H](O)[C@@H](O[C@H]5[C@H](O)[C@@H](O)[C@@H](O[C@H]6[C@H](O)[C@@H](O)[C@@H](O[C@H]7[C@H](O)[C@@H](O)[C@@H](O[C@H]8[C@H](O)[C@@H](O)[C@@H](O[C@H]1[C@H](O)[C@H]2O)O[C@@H]8CO)O[C@@H]7CO)O[C@@H]6CO)O[C@@H]5CO)O[C@@H]4CO)O[C@@H]3CO", "note": "[β cyclodextrin]", "values": [
      {"measurement": "absorbance of the external solution at 327 nm", "setting": "[1]", "result": 0.3030},
      {"measurement": "absorbance of the external solution at 540 nm", "setting": "[2]", "result": 0.1873}
    ]}
  ]
}
